# pIC50: −log10 of the molar value.
# Biological target: T1, Recombinant human HSP90α (Homo sapiens, UniProt P07900)
# T1 construct: host or cells: E. coli
# Test: HSP90 radioligand filter binding test ([3H]17AAG competition)
# Settings: [3H]17AAG 0.08 μM, HSP90 1.5 μg/assay, 22° C., 30 min; read-out: HSP90 inhibition IC50
# From the text: The binding of geldanamycin or 17-allylamino-17-demethoxygeldanamycin (17AAG) to HSP90 and competitive inhibition thereof can be utilised in order to determine the inhibitory activity of the compounds according to the invention (Carreras et al. 2003, Chiosis et al. 2002).
# In the specific case, a radioligand filter binding test is used. The radioligand used here is tritium-labelled 17-allylaminogeldanamycin, [3H]17AAG. This filter binding test allows a targeted search for inhibitors which interfere with the ATP binding site.
# Recombinant human HSP90α (E. coli expressed, 95% purity);
# [3H]17AAG (17-allylaminogeldanamycin, [allylamino-2,3-^3H. Specific activity: 1.11×10^12 Bq/mmol (Moravek, MT-1717);
# HEPES filter buffer (50 mM HEPES, pH 7.0, 5 mM MgCl2, BSA 0.01%) Multiscreen FB (1 μm) filter plate (Millipore, MAFBNOB 50).
# The 96-well microtitre filter plates are firstly irrigated and coated with 0.1% of polyethylenimine.
# The test is carried out under the following conditions:
# Reaction temperature 22° C.
# Reaction time: 30 min., shaking at 800 rpm
# 50 mM HEPES HCl, pH 7.0, 5 mM MgCl2, 0.01% (w/v) BSA
# At the end of the reaction, the supernatant in the filter plate is removed by suction with the aid of a vacuum manifold (Multiscreen Separation System, Millipore), and the filter is washed twice.
# The filter plates are then measured in a beta counter (Microbeta, Wallac) with scintillator (Microscint 20, Packard).
# “% of control” is determined from the “counts per minutes” values and the IC-50 value of a compound is calculated therefrom.
row,pIC50,Compound
1,6.05,"Fc1nc(N2CCC[C@@H]2COc2ccccc2F)c2nc[nH]c2n1 [Compound A47, 2-Fluoro-6-[(R)-2-(2-fluorophenoxy-methyl)pyrrolidin-1-yl]-9H-purine]"
2,4.70,"Brc1ccccc1OC[C@H]1CCCN1c1ncnc2[nH]cnc12 [Compound A52, 6-[(R)-2-(2-Bromophenoxymethyl)-pyrrolidin-1-yl]-9H-purine]"
3,4.52,"O[C@H]1C[C@H](COc2ccccc2)N(c2nc(Cl)nc3[nH]cnc23)C1 [Compound A53, 2-chloro-6-[(2R,4S)-2-phenoxymethyl-4-hydroxypyrrolidin-1-yl]-9H-purine]"
4,5.82,"Cc1nc(N2CCC[C@@H]2COc2ccccc2F)c2nc[nH]c2n1 [Compound A57, 2-Methyl-6-[(R)-2-(2-fluorophenoxy-methyl)pyrrolidin-1-yl]-9H-purine]"
5,5.20,"Cc1nc(N2CCC[C@@H]2COc2ccccc2Cl)c2nc[nH]c2n1 [Compound A58, 2-Methyl-6-[(R)-2-(2-chloro-phenoxymethyl)pyrrolidin-1-yl]-9H-purine]"
